From patent US8138153B2, “Potassium channel modulator peptide” (National Centre for Biological Sciences, priority 2004, dated 2012)

Tested on: K^+ currents (voltage dependent potassium channels) in DRG neurons
Type: cell-based, Wistar rats

FHGGSWYRFPWGY-NH2 [Mo1659]
Effect on fast transient K^+ current component: not significantly affected
